# Results reported in ChEMBL document CHEMBL1201862, “PubChem BioAssay data set” (2004).
# Where “and” joins values, the source holds several entries; their conditions need not be identical. Equal values may be shown once. Calls of active or inactive are those of the source.
# What was measured:
# Ion channel NompC [1] = biological target: T1, Ion channel NompC (Danio rerio, UniProt Q7T1G6); experiment: Fluorescence counterscreen assay for TRPML3 agonists: dose response cell-based high-throughput screening assay to identify agonists of the transient receptor potential channel N1 (TRPN1). [Related pubchem assays: 1526, 1424, 1448 ]; assay type: functional
# Mucolipin-3 [2] = biological target: T2, Mucolipin-3 (Homo sapiens, UniProt Q8TDD5); experiment: Dose response cell-based high-throughput screening assay for agonists of the transient receptor potential channel ML3 (TRPML3). [Related pubchem assays: 1526, 1424, 1448 ]; assay type: functional
# T2 sequence (Q8TDD5 whole entry): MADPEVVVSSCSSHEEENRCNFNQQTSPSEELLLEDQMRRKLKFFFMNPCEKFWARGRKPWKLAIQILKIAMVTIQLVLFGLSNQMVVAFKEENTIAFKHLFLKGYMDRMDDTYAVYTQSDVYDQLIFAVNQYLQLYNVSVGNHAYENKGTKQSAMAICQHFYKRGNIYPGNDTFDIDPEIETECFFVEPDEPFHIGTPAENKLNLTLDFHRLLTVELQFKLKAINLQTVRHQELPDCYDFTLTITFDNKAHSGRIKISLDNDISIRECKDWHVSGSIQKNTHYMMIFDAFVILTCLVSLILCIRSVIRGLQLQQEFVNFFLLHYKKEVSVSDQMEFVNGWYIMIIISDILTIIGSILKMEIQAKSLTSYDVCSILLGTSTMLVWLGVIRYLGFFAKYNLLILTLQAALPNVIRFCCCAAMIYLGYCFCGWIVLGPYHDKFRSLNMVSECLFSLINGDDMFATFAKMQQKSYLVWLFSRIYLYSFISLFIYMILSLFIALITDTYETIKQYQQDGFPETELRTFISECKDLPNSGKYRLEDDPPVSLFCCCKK
# Mucolipin-3 [3] = biological target: T2, Mucolipin-3; experiment: human mucolipin-3 activators, concentration-response – cell-based, calcium fluorescence, dose response (AID 2510); assay type: functional
# Ion channel NompC [4] = biological target: T1, Ion channel NompC; experiment: Late stage counterscreen for the probe development effort to identify selective agonists of the Transient Receptor Potential Channels 3 (TRPML3): fluorescence-based cell-based dose response assay for TRPN1 agonists.; assay type: functional
# Bcl-2-related protein A1 [5] = biological target: T3, Bcl-2-related protein A1 (Mus musculus, UniProt Q07440); experiment: small-molecule antagonists of Bfl-1/BH3 interaction – biochemical, TR-FRET, mouse Bfl-1, confirmation (AID 621);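 also: TR-FRET binding of GST-Bfl-1 to FITC-labelled Bid peptide via terbium antibody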
# T3 sequence (Q07440 whole entry): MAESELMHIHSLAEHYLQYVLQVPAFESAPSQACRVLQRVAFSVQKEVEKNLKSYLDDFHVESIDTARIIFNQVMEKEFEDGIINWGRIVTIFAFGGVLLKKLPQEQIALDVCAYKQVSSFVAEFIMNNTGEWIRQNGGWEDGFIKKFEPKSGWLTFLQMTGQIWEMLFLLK
# [6] = viability loss of HPDE-C7K cells – cell-based, fluorescence, HTS, primary screen (AID 431); assay type: functional; conditions: Homo sapiens
# [7] = biological target: Glyceraldehyde-3-phosphate dehydrogenase (Homo sapiens, UniProt P04406)
# CHO = CHO cell viability loss, potency – luminescence, cytotoxicity control for TLR9-MyD88 binding inhibitor project, dose response (AID 588339); assay type: functional, cell-based, hamster; conditions: Cricetulus griseus;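 also: CHO cells stably coexpressing TLR9 and MyD88 fusions from primary screen; compound exposure lasted 48 hours before viability readout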
# Beta Lactamase = Beta Lactamase (Pseudomonas aeruginosa, UniProt Q932Y6); experiment: BLA reporter interference, concentration series – BLA reporter cells, FRET fluorescence, artefact control for TLR9-MyD88 binding inhibitor project, dose response (AID 588341); assay type: cell-based;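 also: cell based assay in CHO-K1 cells stably expressing beta-lactamase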
# [8] = biological target: T4, Replicative DNA helicase DnaB (Mycobacterium tuberculosis, UniProt P9WMR3); experiment: DnaB intein splicing inhibitors, dose response, biochemical, cell-free fluorescence (AID 449749); assay type: functional
# T4 sequence (P9WMR3 whole entry): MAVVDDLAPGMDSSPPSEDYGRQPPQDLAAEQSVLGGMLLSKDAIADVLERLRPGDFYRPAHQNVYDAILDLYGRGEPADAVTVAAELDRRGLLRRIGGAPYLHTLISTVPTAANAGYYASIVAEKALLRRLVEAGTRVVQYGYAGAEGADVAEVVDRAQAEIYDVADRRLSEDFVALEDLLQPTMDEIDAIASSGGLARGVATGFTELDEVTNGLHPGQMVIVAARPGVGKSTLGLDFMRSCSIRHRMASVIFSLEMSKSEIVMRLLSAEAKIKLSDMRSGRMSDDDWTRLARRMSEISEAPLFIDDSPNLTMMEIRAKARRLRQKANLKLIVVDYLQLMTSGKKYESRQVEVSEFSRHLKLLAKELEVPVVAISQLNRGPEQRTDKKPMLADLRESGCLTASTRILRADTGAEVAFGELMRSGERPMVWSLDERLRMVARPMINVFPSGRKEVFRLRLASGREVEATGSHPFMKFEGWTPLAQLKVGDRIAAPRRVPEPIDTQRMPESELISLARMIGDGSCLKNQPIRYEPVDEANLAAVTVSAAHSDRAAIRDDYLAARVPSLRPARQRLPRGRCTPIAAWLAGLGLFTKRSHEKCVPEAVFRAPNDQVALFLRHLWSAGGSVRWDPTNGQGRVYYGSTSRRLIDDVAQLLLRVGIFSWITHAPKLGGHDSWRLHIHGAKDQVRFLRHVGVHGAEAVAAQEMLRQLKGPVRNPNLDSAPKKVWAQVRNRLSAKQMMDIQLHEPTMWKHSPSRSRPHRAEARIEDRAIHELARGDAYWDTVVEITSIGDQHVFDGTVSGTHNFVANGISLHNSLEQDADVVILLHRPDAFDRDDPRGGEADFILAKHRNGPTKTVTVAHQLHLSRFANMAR
# [9] = reduction of Shn3 3'UTR-driven luciferase in osteoblasts – cell-based, Clone20 osteoblasts, firefly luciferase, cherry-picked, dose response (AID 624132); assay type: functional;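 also: firefly luciferase luminescence from reporter carrying the Shn3 3'UTR in osteoblasts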
# Protein RecA = biological target: T5, Protein RecA (Mycobacterium tuberculosis, UniProt P9WHJ3); experiment: Fluorescence Cell-Free Homogeneous Dose Retest to Identify Inhibitors of RecA-Intein Splicing Activity. [Related pubchem assays (depositor defined):AID2097, AID2223, AID489010, AID492950]; assay type: functional
# T5 sequence (P9WHJ3 whole entry): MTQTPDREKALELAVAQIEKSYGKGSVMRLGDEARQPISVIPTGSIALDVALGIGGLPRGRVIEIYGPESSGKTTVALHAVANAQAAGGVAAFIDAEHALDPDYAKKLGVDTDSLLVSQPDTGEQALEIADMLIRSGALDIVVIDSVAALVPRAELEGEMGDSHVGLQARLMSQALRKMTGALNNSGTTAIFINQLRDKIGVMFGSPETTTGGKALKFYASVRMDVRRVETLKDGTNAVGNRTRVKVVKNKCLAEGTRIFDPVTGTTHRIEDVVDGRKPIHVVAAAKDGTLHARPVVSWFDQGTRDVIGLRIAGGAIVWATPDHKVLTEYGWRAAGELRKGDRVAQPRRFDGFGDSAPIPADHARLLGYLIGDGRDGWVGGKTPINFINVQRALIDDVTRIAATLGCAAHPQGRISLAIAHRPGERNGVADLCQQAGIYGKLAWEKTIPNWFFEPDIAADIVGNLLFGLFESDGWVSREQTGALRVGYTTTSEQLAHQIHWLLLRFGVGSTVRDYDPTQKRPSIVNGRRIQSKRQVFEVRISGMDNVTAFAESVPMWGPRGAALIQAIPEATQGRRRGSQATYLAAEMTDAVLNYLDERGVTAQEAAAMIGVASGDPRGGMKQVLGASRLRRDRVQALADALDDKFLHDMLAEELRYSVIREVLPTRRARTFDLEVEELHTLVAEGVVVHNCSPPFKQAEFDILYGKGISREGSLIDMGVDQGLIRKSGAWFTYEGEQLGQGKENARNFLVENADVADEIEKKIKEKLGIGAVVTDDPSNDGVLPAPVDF
# [10] = HPDE-C7 pancreatic duct cell viability loss – fluorescence, HTS (AID 430); assay type: functional, cell-based; conditions: Homo sapiens
# Bcl-2-related protein A1 [11] = biological target: T3, Bcl-2-related protein A1; experiment: Bfl-1 binding inhibitors, SAR follow-up, biochemical, fluorescence polarization (AID 1070)
# Bcl-2-related protein A1 [12] = biological target: T3, Bcl-2-related protein A1; experiment: displacement of Bid BH3 peptide from Bfl-1 – biochemical, fluorescence polarization, FITC-Bid, mouse, primary screen (AID 432)
# [13] = loss of viability in HepG2 cells – cell-based, CellTiter-Glo, cherry-picked, cytotoxicity control for Shn3 inhibitor project, dose response (AID 624134); assay type: functional
# [14] = non-specific 3'UTR reporter inhibition in Clone20-Shn3RL – cell-based, Renilla luciferase, cherry-picked, counter-screen for Shn3 inhibitor project, dose response (AID 624133); assay type: functional
# T1 sequence (Q7T1G6 whole entry): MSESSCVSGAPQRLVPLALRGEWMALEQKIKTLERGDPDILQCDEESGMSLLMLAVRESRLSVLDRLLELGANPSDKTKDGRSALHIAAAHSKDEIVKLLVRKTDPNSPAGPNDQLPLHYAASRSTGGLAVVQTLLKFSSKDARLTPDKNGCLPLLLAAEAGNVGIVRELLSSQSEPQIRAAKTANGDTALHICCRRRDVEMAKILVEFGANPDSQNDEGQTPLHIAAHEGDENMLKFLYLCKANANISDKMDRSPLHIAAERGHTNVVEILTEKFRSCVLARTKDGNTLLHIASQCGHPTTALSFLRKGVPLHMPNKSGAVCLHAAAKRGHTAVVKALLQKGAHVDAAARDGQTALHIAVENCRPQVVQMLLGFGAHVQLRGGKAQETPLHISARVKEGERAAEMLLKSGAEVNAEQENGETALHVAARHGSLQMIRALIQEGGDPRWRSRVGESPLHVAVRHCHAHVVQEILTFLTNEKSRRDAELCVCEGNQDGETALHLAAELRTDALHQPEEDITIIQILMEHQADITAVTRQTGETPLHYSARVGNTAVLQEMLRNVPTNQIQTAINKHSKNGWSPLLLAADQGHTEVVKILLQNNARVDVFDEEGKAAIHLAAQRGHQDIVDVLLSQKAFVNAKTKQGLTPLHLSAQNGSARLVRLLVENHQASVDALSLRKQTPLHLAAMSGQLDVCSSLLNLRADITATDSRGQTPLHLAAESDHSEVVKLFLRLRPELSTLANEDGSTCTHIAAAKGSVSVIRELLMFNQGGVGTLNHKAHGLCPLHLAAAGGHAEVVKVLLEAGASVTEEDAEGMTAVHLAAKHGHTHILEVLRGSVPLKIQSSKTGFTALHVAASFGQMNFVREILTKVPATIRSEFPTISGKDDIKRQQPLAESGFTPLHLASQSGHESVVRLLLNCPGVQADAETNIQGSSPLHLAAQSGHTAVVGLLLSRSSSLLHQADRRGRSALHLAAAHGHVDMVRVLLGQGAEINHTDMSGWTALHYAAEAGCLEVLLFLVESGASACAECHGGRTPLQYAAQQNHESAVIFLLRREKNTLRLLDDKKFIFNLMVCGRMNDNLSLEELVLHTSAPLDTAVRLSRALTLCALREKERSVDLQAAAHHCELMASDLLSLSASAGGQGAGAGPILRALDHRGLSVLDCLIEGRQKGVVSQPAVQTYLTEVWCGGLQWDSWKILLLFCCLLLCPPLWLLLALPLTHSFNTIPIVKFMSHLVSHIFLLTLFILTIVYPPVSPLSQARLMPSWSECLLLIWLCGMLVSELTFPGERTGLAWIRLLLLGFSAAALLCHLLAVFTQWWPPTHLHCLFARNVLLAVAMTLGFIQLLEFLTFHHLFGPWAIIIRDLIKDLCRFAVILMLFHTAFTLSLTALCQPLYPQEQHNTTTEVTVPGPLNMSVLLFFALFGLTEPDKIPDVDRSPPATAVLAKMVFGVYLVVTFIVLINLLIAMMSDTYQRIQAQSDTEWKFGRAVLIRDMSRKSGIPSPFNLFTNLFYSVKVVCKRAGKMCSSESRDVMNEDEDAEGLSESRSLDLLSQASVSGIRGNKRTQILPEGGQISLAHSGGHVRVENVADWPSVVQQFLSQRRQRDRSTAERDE
# Beta Lactamase, sequence (Q932Y6 whole entry): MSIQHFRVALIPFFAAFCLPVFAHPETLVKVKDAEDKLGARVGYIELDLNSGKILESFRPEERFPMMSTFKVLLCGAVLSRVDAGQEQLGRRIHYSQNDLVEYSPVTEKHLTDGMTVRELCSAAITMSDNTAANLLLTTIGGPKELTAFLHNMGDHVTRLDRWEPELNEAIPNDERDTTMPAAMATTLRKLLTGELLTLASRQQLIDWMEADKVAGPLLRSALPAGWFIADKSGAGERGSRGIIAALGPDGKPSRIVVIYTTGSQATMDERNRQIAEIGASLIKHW
# Glyceraldehyde-3-phosphate dehydrogenase, sequence (P04406 whole entry, the tested form may be a part): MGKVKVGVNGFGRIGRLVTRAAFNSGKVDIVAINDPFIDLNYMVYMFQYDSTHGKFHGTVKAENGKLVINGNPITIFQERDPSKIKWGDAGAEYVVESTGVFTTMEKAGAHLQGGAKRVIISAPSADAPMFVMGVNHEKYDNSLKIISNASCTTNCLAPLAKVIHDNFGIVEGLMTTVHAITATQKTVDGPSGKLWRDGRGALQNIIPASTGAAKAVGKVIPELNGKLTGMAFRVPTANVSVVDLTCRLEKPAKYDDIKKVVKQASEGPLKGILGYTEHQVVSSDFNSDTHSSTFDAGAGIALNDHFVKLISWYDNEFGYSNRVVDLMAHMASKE
SMILES,EC50 (Ion channel NompC [1]),EC50 (Mucolipin-3 [2]),EC50 (Mucolipin-3 [3]),EC50 (Ion channel NompC [4]),IC50 (Bcl-2-related protein A1 [5]),EC50 [6],IC50 [7],IC50 (CHO),IC50 (Beta Lactamase),AC50 [8],AC50 [9],EC50 (Protein RecA),EC50 [10],IC50 (Bcl-2-related protein A1 [11]),IC50 (Bcl-2-related protein A1 [12]),AC50 [13],AC50 [14]
Cc1ccc(S(=O)(=O)n2nccc2-c2c(-c3ccccc3)noc2C)cc1,> 29.9 µM (not active),0.819 µM (active),1.01 µM (active),> 29.9 µM (not active),–,–,–,–,–,–,–,–,–,–,–,–,–
CCOC(=O)CS(=O)(=O)c1nc(-c2ccc(F)cc2)cc(C(F)(F)F)n1,–,–,–,–,3.41 µM (active) and 1.46 µM (active),6.05 µM (active),> 100 µM (not active),2.88 µM (active),14.4 µM (inactive),3.35 µM (active),1.78 µM (active),3.3 µM (active),9.29 µM (active),2.16 µM (active),3.78 µM (active),20.9 µM (active),6.97 µM (active)
